Measured values from patent publication US11673866B2, “Estrogen receptor beta ligands for the prevention and treatment of multiple sclerosis (MS) and other demyelinating, inflammatory and neurodegenerative diseases” (The Board of Trustees of the University of Illinois, priority 2018, dated 2023).

Legend:
ERα = molecular target: T1, ERα (Homo sapiens, UniProt P03372); experiment: Relative binding affinity (RBA) to estrogen receptor alpha, radiometric measurement; settings: relative value to 100% for E2 by radiometric measurement
T1 sequence (P03372 1-595): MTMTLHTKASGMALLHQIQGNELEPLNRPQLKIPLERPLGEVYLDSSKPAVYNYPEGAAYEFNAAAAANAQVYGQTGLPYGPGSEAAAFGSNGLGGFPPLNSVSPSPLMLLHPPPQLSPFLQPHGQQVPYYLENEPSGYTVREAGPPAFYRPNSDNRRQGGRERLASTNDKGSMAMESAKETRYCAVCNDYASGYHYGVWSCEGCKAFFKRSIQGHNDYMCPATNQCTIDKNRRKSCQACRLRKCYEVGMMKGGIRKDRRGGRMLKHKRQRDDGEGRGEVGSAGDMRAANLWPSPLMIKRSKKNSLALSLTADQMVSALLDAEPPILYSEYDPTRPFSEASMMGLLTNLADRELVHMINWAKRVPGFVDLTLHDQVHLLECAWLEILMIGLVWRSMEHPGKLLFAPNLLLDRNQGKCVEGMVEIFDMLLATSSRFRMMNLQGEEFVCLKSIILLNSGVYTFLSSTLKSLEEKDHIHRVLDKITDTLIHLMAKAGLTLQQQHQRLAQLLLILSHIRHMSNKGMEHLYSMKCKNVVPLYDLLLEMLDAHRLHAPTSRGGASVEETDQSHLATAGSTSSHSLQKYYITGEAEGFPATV

ERβ = ERβ (Homo sapiens, UniProt Q92731); experiment: Relative binding affinity (RBA) to estrogen receptor beta, radiometric measurement; settings: for β/α Ratio: ratio of RBA ERβ to RBA ERα; for RBA ERβ: relative value to 100% for E2 by radiometric measurement
ERβ, sequence (Q92731 whole entry, species assumed): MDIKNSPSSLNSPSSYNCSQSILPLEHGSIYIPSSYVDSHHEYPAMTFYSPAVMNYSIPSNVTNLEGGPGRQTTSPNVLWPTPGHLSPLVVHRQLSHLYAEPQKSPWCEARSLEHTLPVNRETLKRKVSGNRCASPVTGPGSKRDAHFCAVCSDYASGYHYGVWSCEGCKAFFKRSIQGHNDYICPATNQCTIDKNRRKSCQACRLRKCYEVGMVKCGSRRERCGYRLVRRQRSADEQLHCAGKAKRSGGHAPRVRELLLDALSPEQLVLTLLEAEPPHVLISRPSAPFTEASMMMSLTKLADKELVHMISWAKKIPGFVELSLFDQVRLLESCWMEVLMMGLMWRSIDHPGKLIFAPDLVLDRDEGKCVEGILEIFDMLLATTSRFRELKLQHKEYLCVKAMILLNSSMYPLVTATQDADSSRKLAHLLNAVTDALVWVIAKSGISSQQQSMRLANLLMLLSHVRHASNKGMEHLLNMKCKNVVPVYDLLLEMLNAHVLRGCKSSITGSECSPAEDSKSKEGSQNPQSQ

primary OPCs/OLs = experiment: Primary OPC/OL differentiation and survival (O4, MOG, DAPI staining); assay type: cell-based, mouse; settings: for number of MOG+ OLs: vs vehicle-treated cells, FIG. 12B
Text: FIG. 12A is representative images of primary OPCs/OLs from wells containing differentiating media in the presence of different analogues. OLs were immunostained with an antigen on the surface of oligodendrocyte progenitors, O4, a marker of mature oligodendrocytes, myelin oligodendrocyte glycoprotein, MOG and co-stained with nuclear stain DAPI.
FIG. 12B and FIG. 12C show quantification of the effects of treatment on the number of MOG+ OLs and the number of total cells (DAPI), respectively. […] There were 3 wells/treatment group. n=3 independent experiments were performed. One-Way ANOVA with Dunnett's multiple comparisons test.
The effect on cell differentiation and survival of estrogen receptor § (ERP) ligand IndCl and analogs were investigated. Some estrogen receptor § (ERP) ligands increase primary mouse oligodendrocyte differentiation (FIGS. 12A-12C).

[1] = test system: primary oligodendrocyte and oligodendrocyte precursor cells (OL/OPCs); experiment: Primary OPC culture differentiation (MBP immunostaining, DAPI); assay type: cell-based, mouse
Method: Primary OPC Cultures: Primary OPCs, isolated from postnatal day P1 C57BL/6 male and female mouse cortices as described previously, were treated with 10 nM ligands in differentiating medium for 3 days (Tiwari-Woodruff et al., 2001; Tiwari-Woodruff et al., 2006). Primary OPC were cultured into 8-well chamber slides (three wells per condition, 2.5×10^5 cells/well) for three days to attach and […] in differentiating media (consisting of DMEM-F12 with triiodothyronine- and thyroxine-containing Sato as well as penicillin, streptomycin, insulin, N-acetyl-L-cysteine, forskolin, ciliary neurotrophic factor, neurotrophin-3, and platelet-derived growth factor receptor α (Tiwari-Woodruff et al., 2001)). A positive control (IndCl), a negative control (Vehicle consisting of the media+EtOH mixture used to dissolve IndCl), and a normal control (differentiating media alone) were used for comparison. At the end of the treatment period, cells were fixed, stained by immunocytochemistry (primary antibody polyclonal chicken myelin basic protein (MBP, Millipore AB9348), shown in green and co-stained with nuclear stain—DAPI shown in blue), and imaged with an Olympus BX61 confocal microscope (Olympus America Inc., Center Valley, Pa.) at 10× magnification (3 images per well). Cells were counted using the ImageJ multipoint tool, and counts were then divided by the image area (mm^2). Average cell density for each condition was then divided by the normal condition cell density. Analysis of OL differentiation consisted of counting the number of MBP+ cells and process extensions that were longer than the respective cell-body diameter and tracking the number of highly branched MBP+ cells (with three or more processes) (Monnerie et al., 2017). Statistics were performed using GraphPad Prism 6 Software (La Jolla, Calif.). One-way ANOVA with Tukey's posthoc test for multiple comparisons was used to generate p-values, and data are presented as mean SEM (with α≤0.05).
Primary OPC cultures were used as a convenient cell-based assay to characterize the proliferation and/or differentiation effects of the new IndCl analogues and to select those most suitable for more extensive studies to be done in comparison with the parental ligand, IndCl. 48 hours after plating OPCs, one of seven IndCl analogues (FIG. 1A) was added to differentiating media at a concentration of 10 nM (De Angelis et al., 2005; Saijo et al., 2011). OPCs were allowed to differentiate for 3 days in the presence of IndCl or analogues, at which point they were fixed, immunostained for OPC/OL markers, and quantified. […] The total number of cells in culture was not altered by any treatment (FIGS. 1B and 1D).

Row | RBA ERα (ERα) [%] | β/α Ratio (ERβ) | RBA ERβ (ERβ) [%] | Compound | number of MOG+ OLs (primary OPCs/OLs) | MBP+/DAPI ratio (OPC differentiation) ([1]; FIG. 10B) | number of total cells (DAPI) (primary OPCs/OLs; FIG. 12C) | %MBP+/DAPI ([1]; level of production of myelin basic protein in primary OPC/OL cultures)
1 | 1.22 | 9.8 | 11.99 | Cc1cc(O)ccc1-n1nc2ccc(O)cc2c1Br [IndBr-o-Me, 3-bromo-2-(4-hydroxy-2-methylphenyl)-2H-indazol-5-ol] | significant increase |  |  | 
2 | 0.062 | 48.2 | 2.99 | Oc1ccc(-n2nc3ccc(O)cc3c2Cl)c(O)c1 [IndCl-o-OH, 4-(3-chloro-5-hydroxy-2H-indazol-2-yl)benzene-1,3-diol] |  | greatest increase |  | 
3 | 0.37 | 3.3 | 1.22 | Oc1ccc(-n2nc3ccc(O)cc3c2F)c(Br)c1 [IndF-o-Br, 2-(2-bromo-4-hydroxyphenyl)-3-fluoro-2H-indazol-5-ol] | significant increase |  | significant increase | 
4 | 0.11 | 3.4 | 0.37 | Cc1cc(O)ccc1-n1nc2ccc(O)cc2c1F [IndF-o-Me, 3-fluoro-2-(4-hydroxy-2-methylphenyl)-2H-indazol-5-ol] | significant increase |  |  | * * * * *
